PubChem BioAssay AID248 (DTP/NCI, 2004)
“And” between values parts separate entries of the source, which are not always exact repeats. Equal values may be shown once. Toxic doses and inconclusive results are not listed. Cut-off read from the data, not from the text of the source: active = T/C of 150% or more; inactive = T/C below 125%.

System: L1210 leukemia ip in BDF1 mice, survival T/C
Assay: NCI In Vivo Anticancer Drug Screen. Data for tumor model L1210 Leukemia (intraperitoneal) in B6D2F1 (BDF1) mice
Conditions: endpoint: mean survival time, higher = longer survival
How it was run: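 Read-out is survival time, reported as the treated-group measurement over the vehicle-control measurement.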

[1] = dose: 100.0 mg/kg/injection, schedule: Q01DX001 (ip), vehicle: saline
[2] = dose: 200.0 mg/kg/injection, schedule: Q01DX001 (ip), vehicle: saline
[3] = dose: 400.0 mg/kg/injection, schedule: Q01DX001 (ip), vehicle: saline
[4] = dose: 100.0 mg/kg/injection, schedule: Q04DX003 (ip), vehicle: saline
[5] = dose: 200.0 mg/kg/injection, schedule: Q04DX003 (ip), vehicle: saline
[6] = dose: 100.0 mg/kg/injection, schedule: Q01DX009 (ip), vehicle: Klucel (hydroxypropylcellulose) (HPC)
[7] = dose: 100.0 mg/kg/injection, schedule: Q04DX003 (ip), vehicle: Klucel (hydroxypropylcellulose) (HPC)
[8] = dose: 200.0 mg/kg/injection, schedule: Q01DX009 (ip), vehicle: Klucel (hydroxypropylcellulose) (HPC)
[9] = dose: 200.0 mg/kg/injection, schedule: Q04DX003 (ip), vehicle: Klucel (hydroxypropylcellulose) (HPC)
[10] = dose: 400.0 mg/kg/injection, schedule: Q01DX009 (ip), vehicle: Klucel (hydroxypropylcellulose) (HPC)
[11] = dose: 400.0 mg/kg/injection, schedule: Q04DX003 (ip), vehicle: Klucel (hydroxypropylcellulose) (HPC)
[12] = dose: 100.0 mg/kg/injection, schedule: Q01DX009 (ip), vehicle: saline with Tween-80
[13] = dose: 25.0 mg/kg/injection, schedule: Q01DX009 (ip), vehicle: saline
[14] = dose: 50.0 mg/kg/injection, schedule: Q01DX009 (ip), vehicle: saline
[15] = dose: 100.0 mg/kg/injection, schedule: Q01DX009 (ip), vehicle: saline
[16] = dose: 200.0 mg/kg/injection, schedule: Q01DX009 (ip), vehicle: saline
[17] = dose: 400.0 mg/kg/injection, schedule: Q01DX009 (ip), vehicle: saline
[18] = dose: 400.0 mg/kg/injection, schedule: Q04DX003 (ip), vehicle: saline
[19] = dose: 100.0 mg/kg/injection, schedule: Q01DX001 (ip), vehicle: other
[20] = dose: 200.0 mg/kg/injection, schedule: Q01DX001 (ip), vehicle: other
[21] = dose: 400.0 mg/kg/injection, schedule: Q01DX001 (ip), vehicle: other

Measured: T/C

O=P1(Nc2ccc(Cl)cc2)OCC2(CO1)COP(=O)(Nc1ccc(Cl)cc1)OC2 (centres undefined)
inactive: dose: 50.0 mg/kg/injection, schedule: Q01DX001 (ip), vehicle: saline 98 % of control | [1] 93 % of control | [2] 101 % of control | [3] 117 % of control

Cc1c(C(=O)O)c(C(=O)O)c(C)n1-c1ccccc1C(=O)O (tested in a mixture with another compound)
inactive: [4] 106 % of control | [5] 101 % of control

S=C(Nc1ccccc1)Nc1ccccc1S
inactive: [6] 97 % of control | [7] 98 % of control | [8] 92 % of control | [9] 95 % of control | [10] 92 % of control | [11] 95 % of control

CC(=O)NC(=O)CC(O)(c1ccccc1)c1ccccc1
inactive: [12] 96 % of control | dose: 200.0 mg/kg/injection, schedule: Q01DX009 (ip), vehicle: saline with Tween-80 91 % of control | dose: 400.0 mg/kg/injection, schedule: Q01DX009 (ip), vehicle: saline with Tween-80 92 % of control

CCN1CSC(=S)N(CC)C1
inactive: dose: 12.5 mg/kg/injection, schedule: Q04DX003 (ip), vehicle: Klucel (hydroxypropylcellulose) (HPC) 96 % of control | dose: 25.0 mg/kg/injection, schedule: Q01DX009 (ip), vehicle: Klucel (hydroxypropylcellulose) (HPC) 103 % of control | dose: 25.0 mg/kg/injection, schedule: Q04DX003 (ip), vehicle: Klucel (hydroxypropylcellulose) (HPC) 112 % of control | dose: 50.0 mg/kg/injection, schedule: Q01DX009 (ip), vehicle: Klucel (hydroxypropylcellulose) (HPC) 109 % of control | dose: 50.0 mg/kg/injection, schedule: Q04DX003 (ip), vehicle: Klucel (hydroxypropylcellulose) (HPC) 103 % of control

Cc1ncc(C(O)c2ccc(N(C)C)cc2)n1Cc1ccccc1 (centres undefined)
inactive: dose: 100.0 mg/kg/injection, schedule: Q01DX001 (ip), vehicle: Klucel (hydroxypropylcellulose) (HPC) 95 % of control | [6] 100 % of control and 104 % of control | dose: 100.0 mg/kg/injection, schedule: Q04DX002 (ip), vehicle: Klucel (hydroxypropylcellulose) (HPC) 111 % of control | [7] 103 % of control | dose: 200.0 mg/kg/injection, schedule: Q01DX001 (ip), vehicle: Klucel (hydroxypropylcellulose) (HPC) 95 % of control | [8] 103 % of control and 115 % of control | dose: 200.0 mg/kg/injection, schedule: Q04DX002 (ip), vehicle: Klucel (hydroxypropylcellulose) (HPC) 94 % of control and 115 % of control | [9] 105 % of control | dose: 400.0 mg/kg/injection, schedule: Q01DX001 (ip), vehicle: Klucel (hydroxypropylcellulose) (HPC) 89 % of control | [10] 88 % of control | dose: 400.0 mg/kg/injection, schedule: Q04DX002 (ip), vehicle: Klucel (hydroxypropylcellulose) (HPC) 98 % of control and 99 % of control | [11] 103 % of control

CC(C)C1(C(C)C)OCC(CO)O1 (centres undefined)
inactive: [13] 93 % of control | dose: 25.0 mg/kg/injection, schedule: Q04DX003 (ip), vehicle: saline 100 % of control | [14] 102 % of control | dose: 50.0 mg/kg/injection, schedule: Q04DX003 (ip), vehicle: saline 94 % of control | [15] 104 % of control | [4] 94 % of control | [16] 102 % of control | [5] 102 % of control | [17] 104 % of control | [18] 100 % of control

Cn1c(N)c(N=CC2CC=CCC2)c(=O)n(C)c1=O (centres undefined)
inactive: dose: 50.0 mg/kg/injection, schedule: Q01DX001 (ip), vehicle: other 103 % of control | [19] 97 % of control | [20] 92 % of control | [21] 97 % of control

Cn1c(=O)c2c(ncn2CN2CCOCC2)n(C)c1=O
inactive: dose: 75.0 mg/kg/injection, schedule: Q01DX001 (ip), vehicle: saline 100 % of control | dose: 150.0 mg/kg/injection, schedule: Q01DX001 (ip), vehicle: saline 100 % of control

COC1C(/C=C/C(C)=O)OC2OC(C)(C)OC21 (centres undefined)
inactive: dose: 6.25 mg/kg/injection, schedule: Q01DX009 (ip), vehicle: saline 105 % of control | dose: 12.5 mg/kg/injection, schedule: Q01DX009 (ip), vehicle: saline 105 % of control | [13] 107 % of control | [14] 98 % of control | [15] 100 % of control | [16] 98 % of control

CCC(CC)C(=O)OCC(C)(C)C
inactive: dose: 100.0 mg/kg/injection, schedule: Q01DX001 (ip), vehicle: carboxymethylcellulose (CMC) 96 % of control | dose: 200.0 mg/kg/injection, schedule: Q01DX001 (ip), vehicle: carboxymethylcellulose (CMC) 104 % of control | dose: 400.0 mg/kg/injection, schedule: Q01DX001 (ip), vehicle: carboxymethylcellulose (CMC) 96 % of control

COP(=O)(OC)C(O)C(Cl)Cl (centres undefined)
inactive: dose: 100.0 mg/kg/injection, schedule: Q04DX002 (ip), vehicle: saline 115 % of control | dose: 200.0 mg/kg/injection, schedule: Q04DX002 (ip), vehicle: saline 104 % of control | dose: 400.0 mg/kg/injection, schedule: Q04DX002 (ip), vehicle: saline 104 % of control

COc1cccc(CN(CCC(=O)O)Cc2cccc(OC)c2)c1
inactive: dose: 100.0 mg/kg/injection, schedule: Q01DX009 (ip), vehicle: other 100 % of control | dose: 100.0 mg/kg/injection, schedule: Q04DX003 (ip), vehicle: other 88 % of control | dose: 200.0 mg/kg/injection, schedule: Q01DX009 (ip), vehicle: other 102 % of control | dose: 200.0 mg/kg/injection, schedule: Q04DX003 (ip), vehicle: other 88 % of control | dose: 400.0 mg/kg/injection, schedule: Q01DX009 (ip), vehicle: other 102 % of control | dose: 400.0 mg/kg/injection, schedule: Q04DX003 (ip), vehicle: other 93 % of control

CCCCOC(=O)C=O
inactive: dose: 50.0 mg/kg/injection, schedule: Q01DX009 (ip), vehicle: saline with Tween-80 106 % of control | [12] 97 % of control

C#CCCCCCl
inactive: [19] 103 % of control | [20] 104 % of control | [21] 108 % of control

COc1cccc(C2CCCCCC2OS(=O)(=O)c2ccc(C)cc2)c1OC (centres undefined)
inactive: dose: 100.0 mg/kg/injection, schedule: Q04DX003 (ip), vehicle: acetone 110 % of control | dose: 200.0 mg/kg/injection, schedule: Q04DX003 (ip), vehicle: acetone 98 % of control | dose: 400.0 mg/kg/injection, schedule: Q04DX003 (ip), vehicle: acetone 103 % of control

N#CSc1ccc(NN)cc1
inactive: dose: 3.0 mg/kg/injection, schedule: Q01DX009 (ip), vehicle: saline with Tween-80 97 % of control | dose: 6.0 mg/kg/injection, schedule: Q01DX009 (ip), vehicle: saline with Tween-80 90 % of control | dose: 6.0 mg/kg/injection, schedule: Q04DX004 (ip), vehicle: saline with Tween-80 100 % of control | dose: 12.0 mg/kg/injection, schedule: Q01DX009 (ip), vehicle: saline with Tween-80 95 % of control | dose: 12.0 mg/kg/injection, schedule: Q04DX004 (ip), vehicle: saline with Tween-80 98 % of control | dose: 25.0 mg/kg/injection, schedule: Q01DX009 (ip), vehicle: saline with Tween-80 96 % of control | dose: 25.0 mg/kg/injection, schedule: Q04DX003 (ip), vehicle: saline with Tween-80 93 % of control | dose: 25.0 mg/kg/injection, schedule: Q04DX004 (ip), vehicle: saline with Tween-80 102 % of control

CCC1OC2(C)CCCC1O2 (centres undefined)
inactive: dose: 25.0 mg/kg/injection, schedule: Q01DX001 (ip), vehicle: saline sonified 111 % of control | dose: 50.0 mg/kg/injection, schedule: Q01DX001 (ip), vehicle: saline sonified 101 % of control | dose: 100.0 mg/kg/injection, schedule: Q01DX001 (ip), vehicle: saline sonified 122 % of control

NCCc1nc(C(=O)O)cs1
inactive: [1] 104 % of control | [15] 86 % of control | [4] 103 % of control | [2] 102 % of control | [16] 97 % of control | [5] 119 % of control | [3] 104 % of control | [17] 86 % of control | [18] 92 % of control
